Experimental data taken from patent US11806377B2, “Oral use of coriander seed oil for a soothing effect on reactive skin” (Societe d'Exploitation de Produits Pour les Industries …, priority 2018, dated 2023).
Marks after values point to notes of the source that are not given here.

Molecular target: T1, TRPA1 (Homo sapiens, UniProt O75762)
T1 construct: Human sensory neurons were obtained from pluripotent stem cells and cultured in culture plates; endogenous in cells; host or cells: human pluripotent-stem-cell-derived sensory neurons co-cultured with human keratinocytes
T1 sequence (O75762 whole entry): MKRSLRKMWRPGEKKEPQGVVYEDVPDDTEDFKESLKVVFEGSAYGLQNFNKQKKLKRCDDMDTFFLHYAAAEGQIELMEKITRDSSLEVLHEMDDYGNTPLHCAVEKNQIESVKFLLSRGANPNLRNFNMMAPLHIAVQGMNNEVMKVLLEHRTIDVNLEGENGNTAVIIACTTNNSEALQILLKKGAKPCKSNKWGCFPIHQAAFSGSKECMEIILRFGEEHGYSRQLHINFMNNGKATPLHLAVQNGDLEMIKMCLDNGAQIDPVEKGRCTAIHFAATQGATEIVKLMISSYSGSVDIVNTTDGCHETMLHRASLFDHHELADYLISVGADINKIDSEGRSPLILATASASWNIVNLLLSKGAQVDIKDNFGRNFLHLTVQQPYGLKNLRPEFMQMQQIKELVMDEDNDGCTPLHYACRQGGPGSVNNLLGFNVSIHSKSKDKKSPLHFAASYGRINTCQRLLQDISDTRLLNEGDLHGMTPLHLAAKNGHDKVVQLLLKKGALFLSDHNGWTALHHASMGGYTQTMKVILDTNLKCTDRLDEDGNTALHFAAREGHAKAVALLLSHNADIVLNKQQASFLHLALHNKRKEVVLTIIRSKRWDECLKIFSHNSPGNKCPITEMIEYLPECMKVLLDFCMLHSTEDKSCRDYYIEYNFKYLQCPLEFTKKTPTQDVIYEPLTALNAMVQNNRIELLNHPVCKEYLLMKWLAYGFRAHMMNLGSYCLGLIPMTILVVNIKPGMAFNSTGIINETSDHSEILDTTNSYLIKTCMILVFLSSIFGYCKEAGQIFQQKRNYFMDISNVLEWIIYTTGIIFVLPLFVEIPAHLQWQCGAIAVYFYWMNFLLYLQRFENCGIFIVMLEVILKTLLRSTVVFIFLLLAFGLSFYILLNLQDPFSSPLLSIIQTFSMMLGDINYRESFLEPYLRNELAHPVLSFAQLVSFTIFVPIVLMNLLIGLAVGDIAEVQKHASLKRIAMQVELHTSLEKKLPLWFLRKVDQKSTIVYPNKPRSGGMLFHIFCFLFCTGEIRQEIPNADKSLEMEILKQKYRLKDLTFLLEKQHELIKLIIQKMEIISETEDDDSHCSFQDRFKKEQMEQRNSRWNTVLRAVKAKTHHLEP
Assay: Protection against activation of TRPA1 following AITC stimulation, Fluo-4 AM calcium fluorescence in keratinocyte-sensory neuron co-culture
Assay type: cell-based
Conditions: for Activation of TRPA1 following stimulation with AITC, fluorescence, Mean +/- sem: human keratinocyte-neuron co-culture, 1 mM AITC, 6 replicates, 3 minutes
Procedure: The in vitro example described here relates to the reduction in the activation of the receptor TRPA1, involved in the induction of sensations of itching/irritation/scratching/pain of the skin following certain stimulations.
Protection Against Activation of TRPA1 (Neuron Experts Service)
Human sensory neurons were obtained from pluripotent stem cells and cultured in culture plates. Human keratinocytes were grown and then seeded above the neurons.
After 19 days of co-culture at 37° C. in a humid atmosphere under 5% CO2, the test products or the positive reference, HC030031 (C18H21N5O3), at 10 μM, and also the fluorescent probe Fluo-4 AM, were added to the co-culture. The Fluo-4 AM probe makes it possible to follow the rapid kinetics of the variation of the intracellular calcium concentration by measuring in real time its fluorescence intensity, and the calcium flux is associated with activation of TRPA1.
After 30 minutes of incubation, the culture medium was removed and the cultures were washed and then reincubated with the test products. Immediately afterwards, they were placed under an inverted microscope and observed in epifluorescence. […] Five seconds after starting the recording, the neurons were stimulated with 10^-3 M AITC (allyl isothiocyanate).
The experiments were carried out in 6 replicates. The fluorescence was analyzed for 3 minutes.
The fluorescence values were expressed as means+/−sem [standard error of the mean=standard deviation/root (number of values)].
For each condition, the percentages of stimulation and of protection were calculated as follows: % stimulation=100×[mean(condition)]/[mean(cells stimulated with AITC)] % protection=100×[mean(condition)−mean(cells stimulated with AITC)]/[mean(unstressed cells)−mean(cells stimulated with AITC)].
Statistical analysis was performed by a one-way ANOVA test with a significance threshold set at 5%, by comparing the conditions in pairs. A difference between the efficacy of two products was considered: • significant if p<0.05; • “at the limit of significance” if 0.05≤p<0.1; • and not significant if p>0.1.

[1] = HC030031 10 μM, coriander seed oil 0.001%

reduction of the activation of TRPA1 (AITC-stimulated keratinocyte-neuron co-culture, coriander seed oil 0.001%) | % protection (against 1 mM AITC stimulation, HC030031 10 μM, coriander seed oil 0.001%) | % stimulation (relative to cells stimulated with 1 mM AITC, HC030031 10 μM, coriander seed oil 0.001%) | Structure (SMILES) | Activation of TRPA1 following stimulation with AITC, fluorescence, Mean +/- sem [1] | increase in the activation of TRPA1 vs non-stimulated cells (keratinocyte-neuron co-culture, AITC stimulation)
 |  |  | C=CCN=C=S [AITC, allyl isothiocyanate] | 34035 +/− 1910*** AU | 585%
88% | 88% | 25% | CC(C)c1ccc(NC(=O)Cn2cnc3c2c(=O)n(C)c(=O)n3C)cc1 [HC030031] | 8537 +/− 553*** AU | 
